Usually IC50 stands for the concentration needed to halve the response being measured.

The target in this test is AKT1 (Homo sapiens (Human), UniProt P31749). Description: Inactive Akt HTRF Assay (AKT1). Conditions: *labeled: Akt HTFR assay; read-out: AKT1 biochemical assay, IC50. As for the experimental part: AKT1 activity was assayed using CisBio KinEASE™ HTRF Assay technology. This technology utilizes a proprietary biotinylated peptide substrate (STKS3), streptavidin labeled XL665 antibody, and STK antibody-Eu^3+-cryptate. AKT1 activation was achieved by the addition of the activating kinases PDK1 and MAPKAPK2, lipid vesicles, and ATP. The extent of STKS3 biotinylated peptide phosphorylation was determined using a phospho-STK antibody-Eu^3+-cryptate and streptavidin labeled XL665 antibody. XL665 was stimulated by Eu^3+-cryptate resulting in a TR-FRET signal proportional to the STKS3 phosphorylation level.
AKT1, sequence (P31749 whole entry): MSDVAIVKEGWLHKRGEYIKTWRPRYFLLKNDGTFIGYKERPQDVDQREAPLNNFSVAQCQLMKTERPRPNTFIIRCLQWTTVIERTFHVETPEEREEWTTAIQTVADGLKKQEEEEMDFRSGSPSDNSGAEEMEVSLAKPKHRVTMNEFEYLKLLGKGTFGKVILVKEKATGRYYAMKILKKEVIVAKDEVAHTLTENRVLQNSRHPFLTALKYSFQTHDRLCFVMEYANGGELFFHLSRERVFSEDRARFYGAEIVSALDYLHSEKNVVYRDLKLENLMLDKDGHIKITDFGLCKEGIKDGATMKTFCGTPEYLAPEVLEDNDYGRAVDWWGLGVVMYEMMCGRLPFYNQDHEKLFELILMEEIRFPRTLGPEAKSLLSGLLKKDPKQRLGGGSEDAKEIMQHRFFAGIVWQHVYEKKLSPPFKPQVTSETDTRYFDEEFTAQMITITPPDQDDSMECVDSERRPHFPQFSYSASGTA
Representative compounds of the invention and controls ((S)-1-((5-(3-methyl-1H-indazol-5-yl)pyridin-3-yl)oxy)-3-phenylpropan-2-amine, 1-(1-(4-(7-phenyl-1H-imidazo[4,5-g]quinoxalin-6-yl)benzyl)piperidin-4-yl)-1H-benzo[d]imidazol-2(3H)-one, and 8-(4-(1-aminocyclobutyl)phenyl)-9-phenyl-[1,2,4]triazolo[3,4-f][1,6]naphthyridin-3(2H)-one) were prepared in 10% DMSO at 10-fold the desired final concentration, and added to each well of a reaction plate (Corning 96-well half-area solid black nonbinding surface plate) in a volume of 2.5 μL. […] After a 20 minute pre-incubation at room temperature, the kinase reaction was initiated by the addition of 5 μL of an activation mixture diluted in assay buffer containing biotinylated STKS3, PDK1, MAPKAPK2, DOPS/DOPC, PtdIns(3,4,5)P3, and ATP for final concentrations of 150 nM biotinylated STKS3, 1 nM (AKT1), 2.5 nM (AKT2), or 0.4 nM (AKT3) PDK1, 0.8 nM (AKT1), 2 nM (AKT2), or 0.3 nM (AKT3) MK2, 5.5 μM DOPS, 5.5 μM DOPC, 0.5 μM PtdIns(3,4,5)P3, and 50 μM ATP. The plates were incubated for 30 minutes at room temperature, and then stopped by the addition of 25 μL HTRF Detection Buffer containing phospho-STK antibody-Eu^3+-cryptate and streptavidin labeled XL665 antibody, at dilutions of 1:192 and 1:500 respectively. Final assay dilutions of phospho-STK antibody-Eu^3+-cryptate and streptavidin labeled XL665 antibody were 1:384 and 1:1,000 respectively. Assay plates were incubated for 60 minutes at room temperature, and the plates were read on a Perkin Elmer Envision Multilabel plate reader (excitation: 320 nm, emission I: 665 nm, emission II: 615 nm).
(Time-resolved FRET reads energy transfer from a long-lived donor to a nearby acceptor.)
Consider `CC(C)(C)OC(=O)N1CCN(C(=O)c2ccc(-c3nnc4n3-c3cccnc3Nc3ccccc3-4)cc2)CC1` [Example 208, tert-butyl 4-(4-(9H-benzo[f]pyrido[2,3-b][1,2,4]triazolo[4,3-d][1,4]diazepin-3-yl)benzoyl)piperazine-1-carboxylate], for which the IC50 came out at 41 µM.
Take `O=C(c1ccc(-c2nnc3n2-c2cccnc2Nc2ccccc2-3)cc1)N1CCNCC1` [Example 209, (4-(9H-benzo[f]pyrido[2,3-b][1,2,4]triazolo[4,3-d][1,4]diazepin-3-yl)phenyl)(piperazin-1-yl)methanone]: the IC50 came to 17 µM.
To `CC(C)(C)OC(=O)NC1CCN(C(=O)c2ccc(-c3nnc4n3-c3cccnc3Nc3ccccc3-4)cc2)CC1` [Example 210, tert-butyl (1-(4-(9H-benzo[f]pyrido[2,3-b][1,2,4]triazolo[4,3-d][1,4]diazepin-3-yl)benzoyl)piperidin-4-yl)carbamate] belongs 56 µM.
For `NC1CCN(C(=O)c2ccc(-c3nnc4n3-c3cccnc3Nc3ccccc3-4)cc2)CC1` [Example 211, (4-(9H-benzo[f]pyrido[2,3-b][1,2,4]triazolo[4,3-d][1,4]diazepin-3-yl)phenyl)(4-aminopiperidin-1-yl)methanone], the 50% inhibitory concentration (IC50) turned out to be 70 µM.
To `CC(C)(C)OC(=O)NCCc1ccc(-c2nnc3n2-c2cccnc2Nc2ccccc2-3)cc1` [Example 212, tert-butyl 4-(9H-benzo[f]pyrido[2,3-b][1,2,4]triazolo[4,3-d][1,4]diazepin-3-yl)phenethylcarbamate] belongs 4.3 µM; to `CC(C)(C)OC(=O)NCc1ccc(-c2nnc3n2-c2cccnc2Nc2ccccc2-3)cc1` [Example 213, tert-butyl 4-(9H-benzo[f]pyrido[2,3-b][1,2,4]triazolo[4,3-d][1,4]diazepin-3-yl)benzylcarbamate], 14 µM.
For the compound `NCCc1ccc(-c2nnc3n2-c2cccnc2Nc2ccccc2-3)cc1` [Example 214, 2-(4-(9H-benzo[f]pyrido[2,3-b][1,2,4]triazolo[4,3-d][1,4]diazepin-3-yl)phenyl)ethanamine], the 50% inhibitory concentration (IC50) is 14 µM.
To `COc1cccc(C(=O)NC2CCN(Cc3ccc(-c4nnc5n4-c4cccnc4Nc4ccccc4-5)cc3)CC2)c1` [Example 215, N-(1-(4-(9H-benzo[f]pyrido[2,3-b][1,2,4]triazolo[4,3-d][1,4]diazepin-3-yl)benzyl)piperidin-4-yl)-3-methoxybenzamide] belongs 7.6 µM.

(Values after patent US8541407B2 (ArQule, Inc., priority 2010, dated 2013).)
